Results from ChEMBL document CHEMBL4507276 (2021).

Legend:
[1] = molecular target: D(1A) dopamine receptor (Homo sapiens) (UniProt P21728); experiment: D1/HU Eurofins-Panlabs selectivity data (BI); settings: Compound concentration 10.0 uM
[2] = molecular target: B1 bradykinin receptor (Homo sapiens) (UniProt P46663); experiment: B1/H Eurofins-Panlabs selectivity data (BI); settings: Compound concentration 10.0 uM
[3] = molecular target: T1, Ephrin type-B receptor 2 (Homo sapiens) (UniProt P29323); experiment: EPHB2 Invitrogen selectivity data (BI); settings: Compound concentration 3.0 uM
T1 sequence (whole entry): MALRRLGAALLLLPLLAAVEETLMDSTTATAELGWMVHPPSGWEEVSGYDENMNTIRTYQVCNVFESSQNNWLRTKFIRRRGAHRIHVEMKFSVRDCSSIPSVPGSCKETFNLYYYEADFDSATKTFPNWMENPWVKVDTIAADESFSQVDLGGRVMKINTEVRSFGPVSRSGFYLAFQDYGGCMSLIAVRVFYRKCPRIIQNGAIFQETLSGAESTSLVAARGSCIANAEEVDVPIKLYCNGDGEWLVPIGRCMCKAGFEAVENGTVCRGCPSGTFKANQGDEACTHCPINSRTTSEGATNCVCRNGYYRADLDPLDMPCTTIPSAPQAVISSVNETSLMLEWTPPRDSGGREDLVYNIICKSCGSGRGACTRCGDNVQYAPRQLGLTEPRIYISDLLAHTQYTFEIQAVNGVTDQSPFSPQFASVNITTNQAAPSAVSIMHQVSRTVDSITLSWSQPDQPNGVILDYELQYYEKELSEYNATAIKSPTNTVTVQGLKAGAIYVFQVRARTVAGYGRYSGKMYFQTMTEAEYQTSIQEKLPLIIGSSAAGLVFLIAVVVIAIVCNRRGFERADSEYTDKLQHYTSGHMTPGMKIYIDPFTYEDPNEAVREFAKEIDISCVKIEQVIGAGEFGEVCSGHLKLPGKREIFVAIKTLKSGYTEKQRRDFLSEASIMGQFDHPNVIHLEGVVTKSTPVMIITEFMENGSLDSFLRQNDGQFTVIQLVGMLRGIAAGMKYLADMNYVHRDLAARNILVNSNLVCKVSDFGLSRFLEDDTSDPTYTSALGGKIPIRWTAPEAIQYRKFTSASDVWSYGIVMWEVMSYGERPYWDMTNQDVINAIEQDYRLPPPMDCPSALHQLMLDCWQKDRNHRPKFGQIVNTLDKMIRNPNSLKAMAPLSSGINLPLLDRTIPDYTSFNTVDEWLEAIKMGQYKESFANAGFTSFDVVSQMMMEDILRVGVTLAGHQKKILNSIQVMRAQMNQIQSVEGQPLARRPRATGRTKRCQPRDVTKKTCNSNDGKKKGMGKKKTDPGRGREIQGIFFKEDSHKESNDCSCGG

[4] = molecular target: Gastrin/cholecystokinin type B receptor (Homo sapiens) (UniProt P32239); experiment: CCKB/H Cerep selectivity data (BI); settings: Compound concentration 20.0 uM
Gastrin/cholecystokinin type B receptor (Homo sapiens), sequence (P32239 whole entry): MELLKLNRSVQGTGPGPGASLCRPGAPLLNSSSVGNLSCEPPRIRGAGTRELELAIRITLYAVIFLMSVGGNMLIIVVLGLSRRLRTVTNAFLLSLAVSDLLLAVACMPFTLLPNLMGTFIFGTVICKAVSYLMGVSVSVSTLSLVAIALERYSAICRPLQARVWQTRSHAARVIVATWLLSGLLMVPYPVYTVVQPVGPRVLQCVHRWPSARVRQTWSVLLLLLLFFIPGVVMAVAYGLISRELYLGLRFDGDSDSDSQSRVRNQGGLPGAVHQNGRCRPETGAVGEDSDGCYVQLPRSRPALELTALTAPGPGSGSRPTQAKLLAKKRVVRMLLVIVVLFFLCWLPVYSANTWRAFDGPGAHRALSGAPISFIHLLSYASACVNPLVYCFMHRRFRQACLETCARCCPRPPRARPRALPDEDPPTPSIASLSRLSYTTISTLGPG

[5] = molecular target: Prostaglandin F2-alpha receptor (Homo sapiens) (UniProt P43088); experiment: FPH_AGON Cerep selectivity data (BI); settings: filed as agonist, Compound concentration 20.0 uM
Prostaglandin F2-alpha receptor (Homo sapiens), sequence (P43088 whole entry): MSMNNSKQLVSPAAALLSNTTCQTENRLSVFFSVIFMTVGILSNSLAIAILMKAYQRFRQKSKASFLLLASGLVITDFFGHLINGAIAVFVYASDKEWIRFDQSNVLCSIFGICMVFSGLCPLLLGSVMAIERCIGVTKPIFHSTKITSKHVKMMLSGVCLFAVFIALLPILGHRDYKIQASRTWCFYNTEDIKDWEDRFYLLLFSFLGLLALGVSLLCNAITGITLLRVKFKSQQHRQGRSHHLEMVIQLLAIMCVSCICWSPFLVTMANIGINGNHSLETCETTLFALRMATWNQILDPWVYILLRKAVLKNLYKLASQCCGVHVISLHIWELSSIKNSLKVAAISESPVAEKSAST

[6] = molecular target: Casein kinase II subunit alpha (Homo sapiens) (UniProt P68400); experiment: CSNK2A1 Invitrogen selectivity data (BI); settings: Compound concentration 3.0 uM
Casein kinase II subunit alpha (Homo sapiens), sequence (P68400 whole entry, looked up): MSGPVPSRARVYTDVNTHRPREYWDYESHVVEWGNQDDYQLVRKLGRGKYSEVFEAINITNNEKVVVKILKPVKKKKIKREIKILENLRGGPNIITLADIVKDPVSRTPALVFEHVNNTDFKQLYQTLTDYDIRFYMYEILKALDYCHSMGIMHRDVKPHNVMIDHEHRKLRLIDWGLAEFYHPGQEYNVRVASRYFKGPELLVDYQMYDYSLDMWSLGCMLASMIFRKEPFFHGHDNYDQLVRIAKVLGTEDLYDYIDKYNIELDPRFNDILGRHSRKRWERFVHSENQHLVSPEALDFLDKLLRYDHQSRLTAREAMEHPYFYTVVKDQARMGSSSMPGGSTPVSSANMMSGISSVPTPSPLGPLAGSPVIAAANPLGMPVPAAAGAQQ

Measured: residual activity

B1 bradykinin receptor (Homo sapiens), sequence (P46663 whole entry): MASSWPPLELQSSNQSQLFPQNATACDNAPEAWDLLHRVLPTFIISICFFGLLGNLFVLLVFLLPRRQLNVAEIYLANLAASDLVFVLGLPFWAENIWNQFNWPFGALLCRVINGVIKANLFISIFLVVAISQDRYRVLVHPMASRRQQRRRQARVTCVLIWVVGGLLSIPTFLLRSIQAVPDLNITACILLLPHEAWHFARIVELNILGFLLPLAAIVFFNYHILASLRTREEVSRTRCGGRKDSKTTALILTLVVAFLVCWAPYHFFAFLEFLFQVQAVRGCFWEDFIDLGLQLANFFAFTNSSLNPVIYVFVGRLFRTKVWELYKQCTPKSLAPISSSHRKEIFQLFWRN
D(1A) dopamine receptor (Homo sapiens), sequence (P21728 whole entry): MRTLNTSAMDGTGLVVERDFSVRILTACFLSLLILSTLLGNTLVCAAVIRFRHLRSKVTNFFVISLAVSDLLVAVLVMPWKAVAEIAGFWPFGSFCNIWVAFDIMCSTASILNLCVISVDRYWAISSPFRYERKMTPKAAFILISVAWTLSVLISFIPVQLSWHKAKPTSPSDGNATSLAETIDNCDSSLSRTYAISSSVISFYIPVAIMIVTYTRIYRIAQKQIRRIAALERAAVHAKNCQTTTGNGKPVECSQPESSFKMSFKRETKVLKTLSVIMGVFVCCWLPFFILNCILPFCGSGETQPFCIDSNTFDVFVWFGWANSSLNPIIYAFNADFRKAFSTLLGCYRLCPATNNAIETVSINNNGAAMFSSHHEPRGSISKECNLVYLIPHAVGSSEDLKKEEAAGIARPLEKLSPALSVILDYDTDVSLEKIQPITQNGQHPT

CN(C)C(=O)Cn1cc(-c2nc([C@@](C)(c3ccc(-c4cnc(N)nc4)cc3)C3CC3)no2)cn1 [BI 665915]
inactive: [1] 108% | [2] 112% | [3] 93.5% | [4] 119% | [5] 84% | [6] 97%
